For series [1] the following is noted: at pH levels less than 4.0; cited from earlier work.
The nature of a further series: solubility in water. As to conditions: freeze-dried yellow powder. Type of series: physicochemical. The source says:
In order to facilitate removal of the aldehyde protective group of the Schiff base and to form the salt of the liberated free base ester, the Schiff base is stirred in water overnight, centrifuged and the insoluble product dried by lyophilization. HPLC and 300 Mhz NMR indicate that the product contains some p-chlorobenzaldehyde and is usually about a 50/50 mixture of the desired methyl ester and the corresponding Schiff base. The mixture is stirred in ethyl acetate to remove the excess aldehyde. The product is then dissolved in a solvent which is inert to the materials, is miscible with water, and can be removed from an aqueous solution as an azeotrope. Tetrahydrofuran or acetonitrile fulfil these requirements. […] A solution of amphotericin B methyl ester Schiff base/free base in tetrahydrofuran is diluted with water to approximately 75% THF but maintained in solution. To this solution is added dilute hydrochloric acid until the appropriate pH is reached. This causes the hydrolysis of the Schiff base and forms the hydochloride salt of amphotericin B methyl ester. The tetrahydrofuran is then removed as an azeotrope with water to obtain an aqueous solution of the AME.HCl and some insoluble material containing part of the aldehyde. The residual aldehyde in the aqueous solution of the AME.HCl is an impurity which can not be readily removed by filtration, centrifuging, or solvent extraction. […]

Another series is described as follows: pH of a 1% solution. It counts as physicochemical. The method, then: A mixture of amphotericin B methyl ester and its p-chlorobenzilidine derivative (1.029 g) was dissolved in 40 ml o THF/H2O (4/1) and 0.90 ml of 1.0 M acetic acid solution was added dropwise. Water (40 ml) was added and THF was removed as an azeotrope at reduced pressure and 40° C. The resulting aqueous solution was passed through a column of Amberlite® XAD-2, then freeze-dried to afford 0.654 g of the acetate salt: E^1%1 cm=1100 at 382 nm in MeOH; a 1% solution had pH 5.30.

Regarding `COC(=O)[C@H]1[C@@H]2C[C@@H](O[C@@H]3O[C@H](C)[C@@H](O)[C@H](N)[C@@H]3O)/C=C/C=C/C=C/C=C/C=C/C=C/C=C/[C@H](C)[C@@H](O)[C@@H](C)[C@H](C)OC(=O)C[C@H](O)C[C@H](O)CC[C@@H](O)[C@H](O)C[C@H](O)C[C@](O)(C[C@@H]1O)O2` [AME, amphotericin B methyl ester], the stability result in series [1] is “very unstable”.
For `COC(=O)[C@H]1[C@@H]2C[C@@H](O[C@@H]3O[C@H](C)[C@@H](O)[C@H](N)[C@@H]3O)/C=C/C=C/C=C/C=C/C=C/C=C/C=C/[C@H](C)[C@@H](O)[C@@H](C)[C@H](C)OC(=O)C[C@H](O)C[C@H](O)CC[C@@H](O)[C@H](O)C[C@H](O)C[C@](O)(C[C@@H]1O)O2.Cl` [AME.HCl, amphotericin B methyl ester hydrochloride], the solubility in water entry in the series “solubility in water” is “highly soluble”.
In the series “pH of a 1% solution”, `CC(=O)O.COC(=O)C1C(O)CC2(O)CC(O)CC(O)C(O)CCC(O)CC(O)CC(=O)OC(C)C(C)C(O)C(C)C=CC=CC=CC=CC=CC=CC=CC(OC3OC(C)C(O)C(N)C3O)CC1O2` (stereo not drawn) [Amphotericin B Methyl Ester Acetate] came in with a pH of solution of 5.30.

The record behind these values is patent US6613889B2, “Method for preparing salts of polyene macrolide esters” (BioSource Pharm, Inc., priority 2001, dated 2003).
